Source: patent US9662339B2, “Benzodioxane inhibitors of leukotriene production for combination therapy” (Boehringer Ingelheim International GmbH, priority 2012, dated 2017)

Target: human LTA4 hydrolase (Homo sapiens (Human), UniProt P09960)
Experiment: LTA4H Enzyme assay (cleavage of Arg-AMC, fluorescence)
Assay type: biochemical
Settings: LTA4H Enzyme 1 nM, Arg-AMC substrate 50 μM, room temperature 1 h
Experimental: The compounds of the invention are assessed for the ability to interact with human LTA4 hydrolase in an enzymatic assay that measures the ability of the enzyme to cleave the peptide bond of arginyl-aminomethylcoumarin (Arg-AMC). LTA4H Enzyme (1 nM final), Arg-AMC substrate (50 μM final), and compound are combined in a reaction buffer (50 mM Tris-HCl (pH 7.5), 100 mM KCl, 0.5% bovine serum albumin) at room temperature for 1 h. The formation of product is assessed by measuring the fluorescence of aminomethylcoumarin product (excitation wavelength 380 nm/emission wavelength 460 nm).

human LTA4 hydrolase, sequence (P09960 whole entry): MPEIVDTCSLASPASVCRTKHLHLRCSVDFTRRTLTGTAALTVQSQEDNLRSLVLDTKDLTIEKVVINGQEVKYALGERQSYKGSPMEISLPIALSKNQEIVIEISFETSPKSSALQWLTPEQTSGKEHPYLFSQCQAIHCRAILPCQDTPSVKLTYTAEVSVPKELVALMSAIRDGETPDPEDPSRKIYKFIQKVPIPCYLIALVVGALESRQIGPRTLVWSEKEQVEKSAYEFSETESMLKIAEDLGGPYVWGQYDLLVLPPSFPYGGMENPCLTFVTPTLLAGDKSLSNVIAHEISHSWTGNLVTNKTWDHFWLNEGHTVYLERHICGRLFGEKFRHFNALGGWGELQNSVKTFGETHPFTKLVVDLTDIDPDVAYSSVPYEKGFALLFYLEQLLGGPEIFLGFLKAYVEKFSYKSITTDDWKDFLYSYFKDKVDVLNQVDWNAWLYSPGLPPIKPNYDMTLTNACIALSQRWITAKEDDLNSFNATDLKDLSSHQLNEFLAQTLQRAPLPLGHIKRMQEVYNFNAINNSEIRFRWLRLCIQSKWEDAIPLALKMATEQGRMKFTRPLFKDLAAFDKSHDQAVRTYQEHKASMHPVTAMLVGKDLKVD

| Compound | IC50 [nM] |
| --- | --- |
| c1ccc2c(c1)OCC(c1ccc(CN3CCCC3)cc1)O2 (racemic) [Example 1, 1-[4-(2,3-dihydro-1,4-benzodioxin-2-yl)benzyl]pyrrolidine] | 0.38 |
| O[C@H]1CCN(Cc2ccc(C3COc4ccccc4O3)cc2)C1 (mixture of isomers) [Example 9, (3S)-1-[4-(2,3-dihydro-1,4-benzodioxin-2-yl)benzyl]pyrrolidin-3-ol] | 1.49 |
| O=C1CCCN1CC1CCCN(Cc2ccc(C3COc4ccccc4O3)cc2)C1 (racemic) [Example 10, 1-({1-[4-(2,3-dihydro-1,4-benzodioxin-2-yl)benzyl]piperidin-3-yl}methyl)pyrrolidin-2-one] | 0.75 |
| c1cnc2c(c1)OCC(c1ccc(CN3CCCC3)cc1)O2 (racemic) [Example 15, 3-[4-(pyrrolidin-1-ylmethyl)phenyl]-2,3-dihydro[1,4]dioxino[2,3-b]pyridine] | 0.36 |
| c1ccc2c(c1)OCC(c1ccc(CN3CCn4cnnc4C3)cc1)O2 (racemic) [Example 16, 7-[4-(2,3-dihydro-1,4-benzodioxin-2-yl)benzyl]-5,6,7,8-tetrahydro[1,2,4]triazolo[4,3-a]pyrazine] | 2.32 |
| O=S1(=O)CCN(Cc2ccc(C3COc4cccnc4O3)cc2)CC1 (racemic) [Example 17, 3-{4-[(1,1-dioxidothiomorpholin-4-yl)methyl]phenyl}-2,3-dihydro[1,4]dioxino[2,3-b]pyridine] | 0.77 |
| c1cnc2c(c1)OCC(c1ccc(CN3CCOCC3)cc1)O2 (racemic) [Example 18, 3-[4-(morpholin-4-ylmethyl)phenyl]-2,3-dihydro[1,4]dioxino[2,3-b]pyridine] | 1.14 |
| CNC(=O)C1CCN(Cc2ccc(C3COc4ccccc4O3)cc2)CC1 (racemic) [Example 25, 1-[4-(2,3-Dihydro-benzo[1,4]dioxin-2-yl)-benzyl]-piperidine-4-carboxylic acid methylamide] | 0.76 |
| O=C(O)CCCC1CCN(Cc2ccc(C3COc4ccccc4O3)cc2)CC1 (racemic) [Example 26, 4-{1-[4-(2,3-dihydro-1,4-benzodioxin-2-yl)benzyl]piperidin-4-yl}butanoic acid] | 0.43 |
| O=C(C1CCN(Cc2ccc(C3COc4ccccc4O3)cc2)CC1)N1CCOCC1 (racemic) [Example 37, {1-[4-(2,3-dihydro-1,4-benzodioxin-2-yl)benzyl]piperidin-4-yl}(morpholin-4-yl)methanone] | 1.05 |
| O=C(NCCO)C1CCN(Cc2ccc(C3COc4ccccc4O3)cc2)CC1 (racemic) [Example 52, 1-[4-(2,3-dihydro-1,4-benzodioxin-2-yl)benzyl]-N-(2-hydroxyethyl)piperidine-4-carboxamide] | 0.75 |
| NC(=O)NC1CCN(Cc2ccc(C3COc4ccccc4O3)cc2)CC1 (racemic) [Example 53, 1-{1-[4-(2,3-dihydro-1,4-benzodioxin-2-yl)benzyl]piperidin-4-yl}urea] | 0.42 |
| Cn1cnc(CNCc2ccc(C3COc4ccccc4O3)cc2)c1 (racemic) [Example 55, 1-[4-(2,3-dihydro-1,4-benzodioxin-2-yl)phenyl]-N-[(1-methyl-1H-imidazol-4-yl)methyl]methanamine] | 3.63 |
| c1ccc2c(c1)OCC(c1ccc(CN3CCOCC3)cc1)O2 (centres unmarked) [Example 2, 4-[4-(2,3-dihydro-1,4-benzodioxin-2-yl)benzyl]morpholine] | 2.45 |
| CC1(C)CCN(Cc2ccc(C3COc4ccccc4O3)cc2)CC1 (centres unmarked) [Example 3, 1-[4-(2,3-dihydro-1,4-benzodioxin-2-yl)benzyl]-4,4-dimethylpiperidine] | 2.57 |
| O=C1NCCC12CCN(Cc1ccc(C3COc4ccccc4O3)cc1)CC2 (centres unmarked) [Example 4, 8-[4-(2,3-dihydro-1,4-benzodioxin-2-yl)benzyl]-2,8-diazaspiro[4.5]decan-1-one] | 0.74 |
| FC1CCN(Cc2ccc(C3COc4ccccc4O3)cc2)CC1 (centres unmarked) [Example 5, 1-[4-(2,3-dihydro-1,4-benzodioxin-2-yl)benzyl]-4-fluoropiperidine] | 2.96 |
| O=S1(=O)CCN(Cc2ccc(C3COc4ccccc4O3)cc2)CC1 (centres unmarked) [Example 7, 4-[4-(2,3-dihydro-1,4-benzodioxin-2-yl)benzyl]thiomorpholine 1,1-dioxide] | 2.79 |
| CC(=O)N1CCN(Cc2ccc(C3COc4ccccc4O3)cc2)CC1 (centres unmarked) [Example 11, 1-{4-[4-(2,3-dihydro-1,4-benzodioxin-2-yl)benzyl]piperazin-1-yl}ethanone] | 2.95 |
| O=C(CNCc1ccc(C2COc3ccccc3O2)cc1)N1CCCC1 (centres unmarked) [Example 12, 2-{[4-(2,3-dihydro-1,4-benzodioxin-2-yl)benzyl]amino}-1-(pyrrolidin-1-yl)ethanone] | 10.2 |
| CC(C)(C)NCc1ccc(C2COc3ccccc3O2)cc1 (centres unmarked) [Example 23, N-[4-(2,3-dihydro-1,4-benzodioxin-2-yl)benzyl]-2-methylpropan-2-amine] | 5.2 |
| CC[C@@H](C)NCc1ccc(C2COc3ccccc3O2)cc1 (stereo partly drawn) [Example 24, (2R)-N-[4-(2,3-dihydro-1,4-benzodioxin-2-yl)benzyl]butan-2-amine] | 5.9 |

| Compound | IC50 [nM] |
| --- | --- |
| OCC1CCN(Cc2ccc(C3COc4ccccc4O3)cc2)CC1 (centres unmarked) [Example 27, {1-[4-(2,3-dihydro-1,4-benzodioxin-2-yl)benzyl]piperidin-4-yl}methanol] | 1.2 |
| CC(C)(O)C1CCN(Cc2ccc(C3COc4ccccc4O3)cc2)CC1 (centres unmarked) [Example 28, 2-{1-[4-(2,3-dihydro-1,4-benzodioxin-2-yl)benzyl]piperidin-4-yl}propan-2-ol] | 3.4 |
| OCCCC1CCN(Cc2ccc(C3COc4ccccc4O3)cc2)CC1 (centres unmarked) [Example 29, 3-{1-[4-(2,3-dihydro-1,4-benzodioxin-2-yl)benzyl]piperidin-4-yl}propan-1-ol] | 2.04 |
| CN1CCCN(Cc2ccc(C3COc4ccccc4O3)cc2)CC1 (centres unmarked) [Example 30, 1-[4-(2,3-dihydro-1,4-benzodioxin-2-yl)benzyl]-4-methyl-1,4-diazepane] | 1.77 |
| CC(=O)N1CCCN(Cc2ccc(C3COc4ccccc4O3)cc2)CC1 (centres unmarked) [Example 31, 1-{4-[4-(2,3-dihydro-1,4-benzodioxin-2-yl)benzyl]-1,4-diazepan-1-yl}ethanone] | 1.54 |
| c1ccc2c(c1)OCC(c1ccc(CN3CCCOCC3)cc1)O2 (centres unmarked) [Example 32, 4-[4-(2,3-dihydro-1,4-benzodioxin-2-yl)benzyl]-1,4-oxazepane] | 1.8 |
| COCCN(C)Cc1ccc(C2COc3ccccc3O2)cc1 (centres unmarked) [Example 33, N-[4-(2,3-dihydro-1,4-benzodioxin-2-yl)benzyl]-2-methoxy-N-methylethanamine] | 3.19 |
| O[C@@H]1CCN(Cc2ccc(C3COc4ccccc4O3)cc2)C1 (stereo partly drawn) [Example 34, (3R)-1-[4-(2,3-dihydro-1,4-benzodioxin-2-yl)benzyl]pyrrolidin-3-ol] | 1.89 |
| O=C1NC(=O)C2(CCN(Cc3ccc(C4COc5ccccc5O4)cc3)CC2)N1 (centres unmarked) [Example 35, 8-[4-(2,3-dihydro-1,4-benzodioxin-2-yl)benzyl]-1,3,8-triazaspiro[4.5]decane-2,4-dione] | 0.26 |
| COC1CN(Cc2ccc(C3COc4ccccc4O3)cc2)C1 (centres unmarked) [Example 36, 1-[4-(2,3-dihydro-1,4-benzodioxin-2-yl)benzyl]-3-methoxyazetidine] | 4.45 |
| CN(C)C(=O)CC1CCN(Cc2ccc(C3COc4ccccc4O3)cc2)CC1 (centres unmarked) [Example 38, 2-{1-[4-(2,3-dihydro-1,4-benzodioxin-2-yl)benzyl]piperidin-4-yl}-N,N-dimethylacetamide] | 1.14 |
| CS(=O)(=O)C1CCN(Cc2ccc(C3COc4ccccc4O3)cc2)CC1 (centres unmarked) [Example 39, 1-[4-(2,3-dihydro-1,4-benzodioxin-2-yl)benzyl]-4-(methylsulfonyl)piperidine] | 2.14 |
| c1ccc2c(c1)OCC(c1ccc(CN3CCCCCC3)cc1)O2 (centres unmarked) [Example 40, 1-[4-(2,3-dihydro-1,4-benzodioxin-2-yl)benzyl]azepane] | 0.82 |
| c1ccc2c(c1)OCC(c1ccc(CNC3CCCC3)cc1)O2 (centres unmarked) [Example 41, N-[4-(2,3-dihydro-1,4-benzodioxin-2-yl)benzyl]cyclopentanamine] | 3.71 |
| CN(CCc1ccccn1)Cc1ccc(C2COc3ccccc3O2)cc1 (centres unmarked) [Example 42, N-[4-(2,3-dihydro-1,4-benzodioxin-2-yl)benzyl]-N-methyl-2-(pyridin-2-yl)ethanamine] | 0.69 |
| c1ccc2c(c1)OCC(c1ccc(CNCC3CC3)cc1)O2 (centres unmarked) [Example 43, 1-cyclopropyl-N-[4-(2,3-dihydro-1,4-benzodioxin-2-yl)benzyl]methanamine] | 4.42 |
| CCN(CC)Cc1ccc(C2COc3ccccc3O2)cc1 (centres unmarked) [Example 45, N-[4-(2,3-dihydro-1,4-benzodioxin-2-yl)benzyl]-N-ethylethanamine] | 0.9 |
| N#CC1CN(Cc2ccc(C3COc4ccccc4O3)cc2)C1 (centres unmarked) [Example 46, 1-[4-(2,3-dihydro-1,4-benzodioxin-2-yl)benzyl]azetidine-3-carbonitrile] | 24.8 |
| COC1CCN(Cc2ccc(C3COc4ccccc4O3)cc2)C1 (centres unmarked) [Example 47, 1-[4-(2,3-dihydro-1,4-benzodioxin-2-yl)benzyl]-3-methoxypyrrolidine] | 1.73 |
| CS(=O)(=O)NC1CCN(Cc2ccc(C3COc4ccccc4O3)cc2)CC1 (stereo not drawn) [Example 48, N-{l-[4-(2,3-dihydro-1,4-benzodioxin-2-yl)benzyl]piperidin-4-yl}methanesulfonamide] | 0.16 |
| O=C1CCCN1CC1CCN(Cc2ccc(C3COc4ccccc4O3)cc2)CC1 (centres unmarked) [Example 50, 1-({1-[4-(2,3-dihydro-1,4-benzodioxin-2-yl)benzyl]piperidin-4-yl}methyl)pyrrolidin-2-one] | 0.6 |
| CN(C)C(=O)C1CCN(Cc2ccc(C3COc4ccccc4O3)cc2)CC1 (centres unmarked) [Example 51, 1-[4-(2,3-dihydro-1,4-benzodioxin-2-yl)benzyl]-N,N-dimethylpiperidine-4-carboxamide] | 0.82 |
